Data from US8785483B2, “Methods for treating COPD” (The Board of Regents of the University of Texas System, priority 2010, dated 2014).

Test system: ERK1/2
Assay: Western blot of ERK1/2 phosphorylation in airway epithelial monolayer
Format: cell-based, human
Conditions: ALI monolayer, AR inhibitor 24 h prior to IL-13
Protocol: FIG. 7. AR inhibition prevents IL-13-induced phosphorylation of JAK-1, ERK1/2 and STAT-6 in airway epithelial monolayer. The ciliated monolayer of airway cells at ALI was treated with AR inhibitor for 24 h and stimulated with IL-13 for different time periods as indicated. At the end of incubation, cells were lysed and cell lysate was subjected to western blotting using antibodies against phosphorylated and nonphosphorylated JAK-1, ERK1/2 and STAT-6 to analyze the activation of these signaling proteins. A representative blot is shown (n=4). #p<0.001 vs Control; *p<0.01 and **p<0.001 vs IL-13. For air-liquid interface (ALI) culture, SAEC were seeded at 8.5×10^4 cells/12-mm-diameter PET transparent insert with […] pores (12-well millicell culture insert; Millipore) and pre-coated with rat tail collagen type-1 (Sigma-Aldrich). The cells were grown submerged in the differentiation medium as described earlier by Zhen et al. (Am J Respir Cell Mol Biol 36: 244-253, 2007). […] Protein levels were determined using Bradford reagent (Biorad, Hercules, Calif.). […] The blots were then washed, exposed to HRP-conjugated secondary antibodies (1:5,000 dilution) for 1 h, and the antigen-antibody complex was detected by enhanced chemiluminescence (Amersham Pharmacia Biotech, Piscataway, N.J., USA). […]

With `NC(=O)[C@@H]1C[C@]2(NC(=O)NC2=O)c2cc(F)ccc2O1` [fidarestat, (2S,4S)-2-aminoformyl-6-fluoro-spiro[chroman-4,4′-imidazolidine]-2′,5′-dione] the “IL-13-induced phosphorylation of ERK1/2” value was “decreased significantly”.
